Results published in ChEMBL document CHEMBL3044597, “Docking-based 3D-QSAR modeling of the inhibitors of IMP metallo--lactamase” (Med Chem Res, 2013).

Biological target: Beta-lactamase (Pseudomonas aeruginosa, UniProt Q79MP6)
Experiment: Inhibition of Pseudomonas aeruginosa IMP1 metallo-beta-lactamase

Sequence of Beta-lactamase (Q79MP6 whole entry): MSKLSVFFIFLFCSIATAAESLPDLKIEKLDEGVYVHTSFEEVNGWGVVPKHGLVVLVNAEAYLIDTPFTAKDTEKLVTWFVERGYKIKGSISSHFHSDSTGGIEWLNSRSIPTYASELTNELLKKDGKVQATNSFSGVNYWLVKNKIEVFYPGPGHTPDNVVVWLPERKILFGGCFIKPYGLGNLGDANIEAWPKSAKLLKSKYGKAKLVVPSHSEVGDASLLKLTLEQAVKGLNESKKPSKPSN

Structure (SMILES)	IC50 [µM]
CCCCCC(=O)N[C@H](C)C(=O)S[C@@H](C)Cc1ccc(-c2ccccc2)cc1	13
C[C@@H](Cc1ccc(-c2ccccc2)cc1)SC(=O)[C@@H](C)NC(=O)Cc1ccccc1	5.79
CCC(=O)N[C@H](C)C(=O)S[C@@H](C)Cc1ccc(-c2ccccc2)cc1	9.51
C[C@@H](Cc1ccc(-c2ccccc2)cc1)SC(=O)[C@@H](C)NC(=O)CNC(=O)c1ccccc1	50
C=CCOC(=O)N[C@H](C)C(=O)S[C@@H](C)Cc1ccc2oc3ccccc3c2c1	2.9
C[C@@H](Cc1ccccc1)SC(=O)[C@@H](C)NC(=O)c1ccccc1	20
CCCCC(=O)N[C@H](C)C(=O)S[C@@H](C)Cc1ccc(-c2ccccc2)cc1	4.8
C/C=C/C(=O)N[C@H](C)C(=O)S[C@@H](C)Cc1ccc(-c2ccccc2)cc1	33
C[C@@H](Cc1ccc(-c2ccccc2)cc1)SC(=O)[C@@H](C)NC(=O)c1ccccc1	3.6
CC(C)CC(=O)N[C@H](C)C(=O)S[C@@H](C)Cc1ccc(-c2ccccc2)cc1	5.3
C[C@@H](Cc1ccc(-c2ccccc2)cc1)SC(=O)[C@@H](C)NC(=O)CCc1ccccc1	15
C[C@@H](Cc1ccc(-c2ccccc2)cc1)SC(=O)[C@@H](C)NC(=O)Cc1cccnc1	32
CCCC(=O)N[C@H](C)C(=O)S[C@@H](C)Cc1ccc(-c2ccccc2)cc1	9.29
COc1ccc(C(=O)N[C@H](C)C(=O)S[C@@H](C)Cc2ccc(-c3ccccc3)cc2)cc1	29
C[C@@H](Cc1ccc(-c2ccccc2)cc1)SC(=O)[C@@H](C)NC(=O)CSCC(=O)O	13
C=CCOC(=O)N[C@H](C)C(=O)S[C@@H](C)Cc1ccc(-c2ccccc2)cc1	4.4
CC(=O)S[C@H](Cc1ccccc1)C(=O)O	12
COc1cccc(C(=O)N[C@H](C)C(=O)S[C@@H](C)Cc2ccc(-c3ccccc3)cc2)c1	38
C[C@@H](Cc1ccc(-c2ccccc2)cc1)SC(=O)[C@@H](C)NC(=O)Cc1ccc(N(C)C)cc1	55
CC(=O)N[C@H](C)C(=O)S[C@@H](C)Cc1ccc(-c2ccccc2)cc1	18
COc1ccc(CC(=O)N[C@H](C)C(=O)S[C@@H](C)Cc2ccc(-c3ccccc3)cc2)cc1	12
COc1cc(OC)c(C(=O)N[C@H](C)C(=O)S[C@@H](C)Cc2ccc(-c3ccccc3)cc2)c(OC)c1	46
C[C@@H](Cc1ccc(-c2ccccc2)cc1)SC(=O)[C@@H](C)NC(=O)c1cccc(N(C)C)c1	15
C[C@@H](Cc1ccc(-c2ccccc2)cc1)SC(=O)[C@@H](C)NC(=O)CCCC(=O)O	91
C[C@@H](Cc1ccc(-c2ccccc2)cc1)SC(=O)[C@@H](C)NC(=O)Cc1ccccc1Cc1ccccc1	24
CC(C)C(=O)N[C@H](C)C(=O)S[C@@H](C)Cc1ccc(-c2ccccc2)cc1	9.71
C[C@@H](Cc1ccc(-c2ccccc2)cc1)SC(=O)[C@@H](C)NC(=O)Cc1ccc(O)cc1	3.1
C[C@@H](Cc1ccc(-c2ccccc2)cc1)SC(=O)[C@@H](C)NC(=O)/C=C/c1ccccc1	11
C[C@@H](Cc1ccc(-c2ccccc2)cc1)SC(=O)[C@@H](C)NC(=O)c1ccc2ccccc2c1	18
C[C@@H](Cc1ccc(-c2ccccc2)cc1)SC(=O)[C@@H](C)NC(=O)Cc1cccc2ccccc12	12

Stronger by IC50, values ahead:

IC50 [µM]	Structure (SMILES)
0.00899	O=C(O)[C@@H](Cc1ccc2c(c1)OCO2)[C@H](Cc1ccc2c(c1)OCO2)C(=O)O
1.2	O=C(O)[C@@H](S)Cc1ccc(-c2ccccc2)cc1
0.0027	O=C(O)[C@@H](Cc1ccccc1)[C@H](Cc1ccccc1)C(=O)O
0.0013	O=C(S[C@H](Cc1ccc2oc3ccccc3c2c1)C(=O)O)c1ccccc1
0.013	C[C@@H](c1ccccc1)[C@H](C(=O)O)[C@H](Cc1ccccc1)C(=O)O
1	C[C@@H](Cc1ccc(-c2ccccc2)cc1)SC(=O)[C@@H](C)NC(=O)COc1ccccc1
2.5	O=C(S[C@@H](Cc1ccccc1)C(=O)O)c1ccccc1
0.25	C[C@@H](Cc1ccc(-c2ccccc2)cc1)SC(=O)[C@@H](C)NC(=O)CCC(=O)c1ccccc1
0.057	O=C(O)[C@H](S)Cc1ccc(-c2ccccc2)cc1
0.064	O=C(S[C@H](Cc1ccccc1)C(=O)O)c1ccccc1
2	CC(=O)N[C@H](C)C(=O)S[C@@H](C)Cc1ccc2oc3ccccc3c2c1
0.0859	O=C(O)[C@H](S)Cc1ccccc1
0.25	O=C(O)[C@@H](S)Cc1ccc2oc3ccccc3c2c1
0.023	O=C(O)[C@H](S)Cc1ccc2oc3ccccc3c2c1
1.5	C[C@@H](Cc1ccc2oc3ccccc3c2c1)SC(=O)[C@@H](C)NC(=O)c1ccccc1
0.0037	O=C(O)[C@@H](Cc1ccccc1)[C@H](Cc1ccc2c(c1)OCO2)C(=O)O
0.21	O=C(O)[C@H](Cc1ccccc1)[C@@H](Cc1ccccc1)C(=O)O [(2R,3R)-2,3-DIBENZYLSUCCINIC ACID]
0.0839	CC(=O)S[C@H](Cc1ccc(-c2ccccc2)cc1)C(=O)O
